The numbers were not newly measured in US20020012634A1, “Antimicrobial dental materials contraining 2,4,4' -trichloro2' -hydroxydiphenyl ether” (priority 1997, published 2002), which cites them from elsewhere.

The subject of data set [1] is plaque bacteria. The following applies: toothpaste ingredient, dentifrices.
Data set [2] concerns bacteria. The settings on record: long-term experiments.
In data set [3] the test system is Gram-positive and Gram-negative bacteria as well as fungi, yeasts and viruses.

For `Oc1cc(Cl)ccc1Oc1ccc(Cl)cc1Cl` [triclosan, 2,4,4′-trichloro-2′-hydroxydiphenyl ether], the “solubility in organic solvents” value is on record as “soluble in many organic solvents” and the water solubility result was “low”. Further, the “effect against plaque bacteria / plaque” value in data set [1] is “effective against plaque bacteria”. Besides, in data set [2], the “development of bacterial resistance” value is “no development of bacterial resistance”. In data set [3], the “antimicrobial activity, in words” value is given as “highly effective antimicrobial with a broad spectrum of activity”.
